Among the data in patent US4570000A, “Nitrogen heterocycles” (Imperial Chemical Industries, PLC, priority 1981, dated 1986) are toxic symptoms values, retold here.

One data set relates to anaesthetised rats. Nature of the data set: intravenous toxicity in anaesthetised rats. It is filed as in vivo. As to conditions: two anaesthetised rats, ten times the dose giving approximate 50% inhibition of gastric secretion in the anaesthetised rat. On the procedure:
(§1) No overt toxicity or side effects were noted during the rat or dog tests. The compound 1-[3-(4-[2-(2,2,2-trifluoroethyl)guanidino]pyrimid-2-yloxy)propyl]imidazole was administered intravenously to groups of two anaesthetised rats and four conscious mice at doses which were respectively ten times and one hundred times the dose, in mg./kg., which produced an approximate 50% inhibition of gastric secretion in the anaesthetised rat.

The test system of another data set is conscious mice. Nature of the data set: intravenous toxicity in conscious mice. The note with it: four conscious mice, one hundred times the dose giving approximate 50% inhibition of gastric secretion in the anaesthetised rat. It is filed as in vivo. The protocol:
as §1

Regarding `NC(=NCC(F)(F)F)Nc1ccnc(OCCCn2ccnc2)n1` [Example 6, 1-[3-(4-[2-(2,2,2-trifluoroethyl)guanidino]pyrimid-2-yloxy)propyl]imidazole], the toxic symptoms entry with anaesthetised rats and in the data set with conscious mice was “No toxic symptoms” throughout.
